Where two headings read alike, the source gives them in different places.
Tests used:
Assay type in all cases: in vivo
Puccinia triticina = assay: Wheat brown rust (PUCCRT), disease control on wheat seedlings; details: low volume application at 121.5 g/H, wheat brown rust
In short: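 Compounds in acetone, diluted with nine volumes of water containing 110 ppm Triton X-100, sprayed to run-off on first-leaf Yuma wheat seedlings; track-spray tests used EC formulations with 0.1% Trycol 5941. Puccinia triticina spores applied before or after treatment. Overnight dark dew room at 22° C, 100% humidity, then greenhouse at 24° C.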

Phakopsora pachyrhizi = assay: Asian soybean rust (PHAKPA), disease control on soybean seedlings; details: High volume application at 25 ppm
In short: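 Two-week-old Williams 82 soybean seedlings were sprayed to run-off with compound in acetone/water (1:9) containing 0.011% Tween 20. Inoculation was 3 days before (curative) or 1 day after (protectant) treatment, followed by 24 h dark dew at 22 °C, 100% RH, then 23 °C; disease severity scored on sprayed leaves.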

Zymoseptoria tritici = assay: Leaf blotch of wheat (SEPTTR), disease control on wheat seedlings; details: low volume application at 121.5 g/H, wheat leaf blotch
In short: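 Z. tritici spores were inoculated onto wheat seedlings (Yuma, first leaf emerged) either before or after treatment. Treatment was an automated spray to run-off of acetone/Triton X-100 water solutions, or a track spray of EC formulations with 0.1% Trycol 5941. Plants were held in dew chambers at 20 °C and then a greenhouse at 20 °C. First-leaf severity (0–100%) was converted to percent control against untreated plants.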

[1] = 24 h, 1 Day Protectant, read-out: PUCCRT 1DP disease control, LV activity
[2] = 72 h, 3 Day Curative, read-out: PUCCRT 3DC disease control, LV activity
[3] = 24 h, 1 Day Protectant, read-out: PHAKPA 1DP disease control rating
[4] = 72 h, 3 Day Curative, read-out: PHAKPA 3DC disease control rating
[5] = 24 h, 1 Day Protectant, read-out: SEPTTR 1DP disease control, LV activity
[6] = 72 h, 3 Day Curative, read-out: SEPTTR 3DC disease control, LV activity

Compound	pest or weed control at 121.5 g/ha (Puccinia triticina; [1])	pest or weed control at 121.5 g/ha (Puccinia triticina; [2])	pest or weed control at 25 ppm (Phakopsora pachyrhizi; [3])	pest or weed control at 25 ppm (Phakopsora pachyrhizi; [4])	pest or weed control at 121.5 g/ha (Zymoseptoria tritici; [5])	pest or weed control at 121.5 g/ha (Zymoseptoria tritici; [6])
COc1ccnc(C(=O)N[C@@H](C)C(=O)O[C@@H](C)[C@@H](c2ccc(F)cc2F)C(C)C)c1OC(C)=O [Compound 368]	< 80%	< 0%	< 80%	< 80%	< 80%	< 80%
COc1ccnc(C(=O)N[C@@H](C)C(=O)O[C@@H](C)[C@@H](c2ccc(C)cc2F)C(C)C)c1OC(C)=O [Compound 369]	> 80%	< 80%	< 80%	< 80%	< 80%	< 80%
COc1ccnc(C(=O)N[C@@H](C)C(=O)O[C@@H](C)[C@@H](c2ccc(Cl)cc2Cl)C(C)C)c1OC(C)=O [Compound 370]	< 80%	< 0%	< 80%	< 80%	< 80%	< 80%
COc1ccnc(C(=O)N[C@@H](C)C(=O)O[C@@H](C)[C@H](c2ccccc2OC(C)C)C(C)C)c1OC(C)=O [Compound 376]	> 80%	< 80%	> 80%	< 80%	< 80%	< 80%
COc1ccnc(C(=O)N[C@@H](C)C(=O)O[C@@H](C)[C@H](c2ccc(OC(C)C)cc2)C(C)C)c1OC(C)=O [Compound 377]	> 80%	< 80%	< 80%	< 80%	< 80%	< 80%
COc1ccnc(C(=O)N[C@@H](C)C(=O)O[C@@H](C)[C@H](c2ccc(OC(F)(F)F)cc2)C(C)C)c1OCOC(C)=O [Compound 378]	> 80%	> 80%	< 80%	< 80%	> 80%	> 80%
COc1ccnc(C(=O)N[C@@H](C)C(=O)O[C@@H](C)[C@H](c2ccc(OC(C)C)cc2)C(C)C)c1OCOC(C)=O [Compound 379]	> 80%	< 80%	< 80%	< 80%	< 80%	< 80%
COc1ccnc(C(=O)N[C@@H](C)C(=O)O[C@@H](C)[C@H](c2ccc3c(c2)OCO3)C(C)C)c1OC(C)=O [Compound 380]	> 80%	> 80%	< 80%	< 80%	< 80%	< 80%
COc1ccnc(C(=O)N[C@@H](C)C(=O)O[C@@H](C)[C@H](c2ccc(OC(F)(F)F)cc2)C(C)C)c1OC(C)=O [Compound 381]	> 80%	< 80%	< 80%	< 80%	> 80%	> 80%
COc1ccc([C@H](C(C)C)[C@H](C)OC(=O)[C@H](C)NC(=O)c2nccc(OC)c2OCOC(C)=O)cc1 [Compound 382]	> 80%	> 80%	> 80%	< 80%	< 80%	> 80%
COc1ccc([C@H](C(C)C)[C@H](C)OC(=O)[C@H](C)NC(=O)c2nccc(OC)c2OC(C)=O)cc1 [Compound 383]	> 80%	< 80%	> 80%	< 80%	< 80%	< 80%

Reference: patent US20180186742A1, “PICOLINAMIDES AS FUNGICIDES” (Dow AgroSciences LLC, priority 2017, published 2018)
